Measured values as given in patent US6845328B2, “Screening methods using the crystal structure of ribosomal protein L11/GTPase activating region rRNA complex” (University of Utah Research Foundation, priority 1999, dated 2005).
“Also recorded” adds a separate entry of the source.

Legend:
[1] = system: E. coli S30 lysate and luciferase mRNA; details: bioluminescence; cited from earlier work
70S ribosomes / EF-G = 70S ribosomes / EF-G (Escherichia coli, UniProt P0A7J7); details: cited from earlier work
intact ribosomes = intact ribosomes (Escherichia coli, UniProt P0A7J7); details: higher than for 23S RNA; cited from earlier work
GTPase centre-59 mer = assay: Filter binding assay of thiostrepton to GTPase centre RNA (96-well, displacement format); details: read-out: dissociation constant for the thiostrepton/GTPase centre-59 mer complex
Procedure: Thiostrepton binding to GTPase centre RNA can be monitored by a filter binding assays (Uchiumi et al., 1995, Biol. Chem., 270(50):29889-93; Draper et al., 1988, Methods Enzymol., 164:203-20). The filter binding assay can be transformed to a 96-well format using Millipore MHAB (mixed cellulose ester) 96-well plates. The dissociation constant for the thiostrepton/GTPase centre-59 mer complex of 1 uM is in good accordance with the literature. Additionally, filter binding can show the cooperativity in binding of thiostrepton and L11. Thermotoga maritima ribosomes are known to be sensitive to thiostrepton (Londei et al., 1988, J. Bacteriol., 170(9):4353-60), although 100-fold less than B. stearothermophilus ribosomes. The affinity of thiostrepton for Thermotoga GTPase center RNA in vitro has not yet been determined.
^35S- or ^32P-labelled RNA is prepared by transcription in the presence of radiolabelled nucleotides. The labelled RNAs are purified by gel electrophoresis or chromatography by reverse-phase. […] Association constants between RNA and thiostrepton in the presence or absence of inhbitor are determined in 100 ul reactions containing 10 mM Tris-HCl (pH 7.4), 3 mM MgCl2, 175 mM NH4Cl and 5% v/v DMSO. […]
The relative amounts of RNA retained in the presence and absence of inhibitor can be determined by quantitation of the radioactivity on each filter. […]

GAR RNA = details: RNA without L11; read-out: Kd, affinity for the RNA alone; cited from earlier work
[2] = target: T1, Thermotoga maritima ribosomes (Thermotoga maritima, UniProt P29395); details: less than B. stearothermophilus ribosomes; cited from earlier work
T1 sequence (P29395 2-141 limits assumed): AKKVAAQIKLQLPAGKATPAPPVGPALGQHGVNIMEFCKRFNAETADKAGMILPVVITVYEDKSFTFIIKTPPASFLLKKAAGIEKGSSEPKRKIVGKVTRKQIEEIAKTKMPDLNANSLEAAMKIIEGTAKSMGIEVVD

isolated L11 = isolated L11 (Escherichia coli, UniProt P0A7J7); details: L11 without RNA; cited from earlier work
50S subunits = 50S subunits (Escherichia coli, UniProt P0A7J7); details: cited from earlier work
23S RNA = details: equilibrium dialysis; read-out: dissociation constant of thiostrepton/23S RNA; cited from earlier work

Chain of 70S ribosomes / EF-G (P0A7J7 2-142): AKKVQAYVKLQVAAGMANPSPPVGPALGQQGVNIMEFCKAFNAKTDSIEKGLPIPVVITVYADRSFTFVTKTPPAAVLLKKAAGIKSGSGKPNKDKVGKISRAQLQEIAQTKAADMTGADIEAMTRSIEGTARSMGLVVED
Chain of isolated L11 (P0A7J7 whole entry): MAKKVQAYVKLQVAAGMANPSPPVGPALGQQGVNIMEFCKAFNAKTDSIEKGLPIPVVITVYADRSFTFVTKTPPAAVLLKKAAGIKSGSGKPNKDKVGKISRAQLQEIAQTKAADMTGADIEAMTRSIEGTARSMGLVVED
Chain of 50S subunits (P0A7J7 2-142): as the sequence (P0A7J7 2-142) above
Chain of intact ribosomes (P0A7J7 2-142): as above

| SMILES | yield of active luciferase compared to the control [1] | effect on hydrolysis of GTP by EF-G (70S ribosomes / EF-G) | affinity to intact ribosomes relative to 23S RNA (intact ribosomes) | Kd (GTPase centre-59 mer) [nM] | Kd (GAR RNA) [nM] | sensitivity of ribosomes to thiostrepton relative to B. stearothermophilus ribosomes [2] [fold] | binding to isolated L11 (isolated L11) | binding to 50S subunits (50S subunits) | Kd (23S RNA) [nM] |
| --- | --- | --- | --- | --- | --- | --- | --- | --- | --- |
| O=C(N[C@H](CO)[C@H](O)c1ccc([N+](=O)[O-])cc1)C(Cl)Cl [chloramphenicol] | decrease in yield of active luciferase | – | – | – | – | – | – | – | – |
| C/C=C(\NC(=O)c1csc(-c2csc(-c3ccc4c(n3)-c3csc(n3)[C@H]([C@@H](C)O)NC(=O)c3csc(n3)[C@H](C(C)C)NC(=O)c3csc(n3)/C(=C/C)NC(=O)[C@H]([C@@H](C)O)NC(=O)c3csc-4n3)n2)n1)C(=O)NC[C@@H](C)O [micrococcin] | – | stimulates GTP hydrolysis by EF-G | – | – | – | – | – | – | – |
| C=C(NC(=O)C(=C)NC(=O)c1csc(C2=N[C@@H]3c4csc(n4)[C@H]4NC(=O)c5csc(n5)[C@H]([C@](C)(O)[C@@H](C)O)NC(=O)[C@H]5CSC(=N5)/C(=C/C)NC(=O)[C@H]([C@@H](C)O)NC(=O)c5csc(n5)[C@]3(CC2)NC(=O)[C@H](C)NC(=O)C(=C)NC(=O)[C@H](C)NC(=O)[C@H]([C@@H](C)CC)N[C@@H]2C=Cc3c([C@H](C)O)cc(nc3[C@H]2O)C(=O)O[C@@H]4C)n1)C(N)=O [thiostrepton] | decrease in yield of active luciferase | inhibits elongation factor G (EF-G)-dependent GTP hydrolysis; also recorded: inhibits hydrolysis of GTP by EF-G | 100-1000 fold | 1000 | 400 | 100 | does not bind isolated L11 | binds essentially irreversibly to 50S subunits | 230 |
